Structures can show the parent of a compound that is named as a salt. Where two headings read alike, the source gives them in different places.
Key:
[1] = test system: CT26 spheroids; experiment: 3D spheroid growth assay; assay type: cell-based, murine; details: 10 µM, control grew by over 300 µm
Description: CT26 cells were harvested and seeded in a non‐tissue culture‐treated, U‐bottom‐shaped 96‐well plates at a density of 500 cells per well (200 µL media per well), before centrifugation at 500 xG for 10 minutes. The plate incubated and the spheroids allowed to form over a period of days (typically 5–8). […] Non‐treated/Control spheroids received fresh media.

[2] = test system: CT26 cells; experiment: MTS cell viability assay; assay type: cell-based, murine; details: Mus musculus, CT26, 48 h
Description: Cells were typically grown to 70–80% confluence before passaging, and cells were not used past 20 passages total.
The wells were then treated with 20 µL of MTS reagent (Promega, CellTiter 96 AQeuous One Solution Cell Proliferation Assay) for 4 h, before UV absorbance reading on Biotek Cytation 3 Plate reader (490 nm). The relative cell viability was determined by comparison to untreated cells or cells with DMSO or EtOH at a range of concentrations.

[3] = cited from earlier work
Excerpt: Despite significant scientific advances in recent decades, cancer remains one of the most formidable challenges for modern medicine. The rising rates of colorectal cancer (CRC) diagnoses, particularly amongst younger people, exemplify the new complexities faced. Despite efforts to promote early detection and fast onset of treatment, the prognosis for CRC remains grim, ranking as one of the deadliest malignancies worldwide.

[4] = Pharmacokinetics study in mice (plasma, LC-MS, non-compartmental); details: non-tumor female BALB/c mice, i.v., irinotecan 15 mg kg−1 or SN-38 nanotubes 10 mg kg−1 drug, SN-38 = prodrug and hydrolysed forms combined
[5] = test system: CT26 xenograft; details: CT26 xenograft mice, three i.v. doses

| Compound | increase of spheroid diameter over 5 days [1] [µm] | IC50 ([2]; n = 3, read-out: concentration required to achieve more than 50% cell death) [nM] | reduction of potency compared to SN-38 [3] | C max [4] [µM] | tolerability (body weight, welfare scoring) [5] | IC50 ([2]; concentrations are SN-38 concentration, n = 3, read-out: IC50) [nM] | aqueous solubility ([3]; reason for not testing in vivo) |
| --- | --- | --- | --- | --- | --- | --- | --- |
| CCc1c2c(nc3ccc(OC(=O)N4CCC(N5CCCCC5)CC4)cc13)-c1cc3c(c(=O)n1C2)COC(=O)[C@]3(O)CC [Irinotecan, irinotecan hydrochloride] | 40 | > 10000 | 100–1000 fold | 29.6 | well tolerated | – | – |
| CCc1c2c(nc3ccc(O)cc13)-c1cc3c(c(=O)n1C2)COC(=O)[C@]3(O)CC [SN-38, 7‐ethyl‐10‐hydroxycamptothecin] | – | – | – | – | – | ~200 | poor aqueous solubility |
